Consider one compound from US10912819B2, “Neuroprotective peptides derived from activity-dependent neuroprotective protein for treatment of neurological diseases” (priority 2016, dated 2021).

Molecules are shown by their SMILES.

Experiment [1] deals with Adnp^+/− mice. Put plainly: Social memory test. The experiment is classed as in vivo. The protocol: FIG. 3. NAP treatment increases social memory. Animal performance is shown. (A, animals were as in FIG. 2A,B; n=9-12 per group). Data are expressed as mean±SEM total time (sec) spent exploring mice designated by relative discrimination index (D2=(b−a)/(a+b); b=time sniffing novel mouse, a=time sniffing familiar mouse). An empty wire cup and a cup containing target mouse (“familiar”) were placed in the center of the right or left chamber. After 3 hours, a novel mouse was put inside the empty cup, while the other cup contained the familiar mouse. The Adnp^+/− mice spent less time in exploring the novel mouse, as compared to Adnp^+/+ mice.
(§1) Experiments performed as we described in Malishkevich et al., 2015 (37) and Amram et al., Mol Psychiatry. 2016 October; 21(10):1467-76 (7). 3-6 month-old male mice were used, drug application (0.5 μg/5 μl/mouse) was once daily, for one month and then behavioral assays were initiated together with drug application. In experiments with the vehicle termed DD (NAP-benzalkonium), drug application was at 2 months of age and continued as above. Open field experiments (16, 17) and elevated plus maze evaluations (18) were carried out as before.

Experiment [2] deals with Adnp^+/− mice. In words: Odor discrimination test. The experiment is classed as in vivo. The protocol: As social memory depends on olfactory function, NAP treatment was also tested in odor discrimination test. Odors were presented on a suspended cotton swab to the test mouse placed into the clean cage with fresh shavings. Each mouse was tested during three consecutive 2-min periods for each odor, with 2-min intervals between presentations. The x axis indicates the consecutive number of the odor exposure period. The time that the mouse smelled the swab was recorded (beginning whenever the animal oriented its nostrils toward the cotton swab, within 2 cm or less). (Malishkevich et al., Transl Psychiatry (2015) 5, e501; Amram et al., Mol Psychiatry. 2016 10:1467-76).

In experiment [3] the test system is Adnp^+/− mice. In words: Elevated plus maze test. The conditions noted are these: male mice, 5 min, NAP new formulation (CB); NAP-treated vs Adnp^+/− p<0.001. The experiment is classed as in vivo. Here is the method: FIG. 4. […] The relative time spent in the open/closed arms for 5 min is presented (n=9-12 per group). Data are expressed as mean±SEM. D2 calculates the exploration time of the open arms (a) and the exploration time of the closed arms (b).
as §1
Experiments were performed as described (18), assessing the different times spent in open arms (indicative of exploratory behavior) versus closed arms (indicative of anxious behavior) in the elevated plus maze (FIG. 4).

Experiment [4] has as its system Adnp^+/+ and Adnp^+/− male mice. In words: Open field test. Format: in vivo. The settings on record: 15 min. The protocol:
FIG. 5. […] Furthermore, NAP ameliorates motor dysfunction in Adnp^+/− mice. Each male mouse (n=9-12 per group) was placed in the middle of the field and allowed to freely explore the arena for 15 min. The duration in center zone (A), and the total path traveled (B) were measured by the Ethovision XT video tracking system (Noldus Inc. Leesburg, Va.).
as §1

The test system of experiment [5] is Foxp2. Put plainly: Foxp2 mRNA expression in the tongue, quantitative real-time PCR. Format: in vivo. The settings on record: 4-month-old mice treated with NAP/DD, normalized to Gapdh; increased in Adnp-deficient mice. Here is the method:
(B) Foxp2 (the language-linked gene) expression in the tongue is increased in Adnp-deficient mice and is normalized by NAP. Tongue total RNA was extracted from 4-month-old mice (treated with NAP/DD as above) and analyzed for Foxp2 and Gapdh mRNA expression by quantitative real-time PCR (n=3-7 animals per experimental group). Gapdh served as a normalizing transcript. […] Two-way ANOVA analysis was performed using SigmaPlot. Sexual dichotomy determined by t-test analysis was also observed for the increased Foxp2 expression between Adnp males and females (**p<0.01).
Quantitative reverse transcription real time polymerase chain reaction (RT-PCR) was performed as before (18, 37).

For experiment [6], the system named is microtubule end binding protein 1 and 3 (EB1 and EB3) comets in living N1E-115. In words: Live imaging of EB1/EB3 comets in N1E-115 cells carrying ADNP mutations. Format: cell-based. The settings on record: p.Tyr719*/p.Lys404Valfs*31 ADNP, 4 hours NAP treatment (10^−12M). From the text:
FIG. 10: NAP ameliorates cytoskeletal deficiencies associated with ADNP mutations. Human ADNP mutated cDNA was cloned into plasmids as described (Ivashko-Pachima et al., Molecular Psychiatry 2017, in press). The mutations cloned included the p.Tyr719* ADNP, the most common ADNP mutation (Gozes et al., Frontiers in Endocrinology, under revisions) and the p.Lys408Valfs31*, the first de novo ADNP mutation identified (reviewed in Gozes et al., J Mol Neurosci (2015) 56:751-757.
The effects of ADNP carried p.Tyr719*/p.Lys404Valfs*31 mutation on microtubule end binding protein 1 and 3 (EB1 and EB3) comets in living N1E-115 is shown. For experimental details see, Ivashko-Pachima et al., Molecular Psychiatry 2017, in press. (A) Live imaging of N1E-115 cells. EB1-RFP (red) co-transfected with full ADNP/p.Tyr719*/p.Lys404Valfs*31 carrying plasmids before and after 4 hours NAP treatment (10^−12M) (panel A1). […] (B-C) EB1 Quantification of average track length, comet speed, comet length and number of comets/100 μm^2 (total number of comets: ADNP (full) before treatment n=2639/1 I cells, ADNP (full) after NAP treatment n=3107/15cells, ADNP p.Tyr719* before treatment n=1910/14cells, ADNP p.Tyr719* after NAP treatment n=3990/16cells, ADNP p.Lys404Valfs*31 before treatment n=1082/6cells, ADNP p.Lys404Valfs*31 after NAP treatment n=694/5cells). […]

Experiment [7] deals with schizophrenia patients. The conditions noted are these: clinical study; cited from earlier work.
Experiment [8] relates to individuals suffering from progressive supranuclear palsy (PSP). The conditions noted are these: 30 mg twice daily, changed formulation; cited from earlier work.
[9] abbreviates: 5-month-old mice, 0.5 μg NAP/mouse/day intranasal in CB, 8 weeks, NAP vs vehicle p<0.05.

Regarding `CC[C@H](C)[C@H](NC(=O)[C@H](CO)NC(=O)[C@@H](NC(=O)[C@@H]1CCCN1C(=O)[C@H](C)NC(=O)[C@@H](N)CC(N)=O)C(C)C)C(=O)N1CCC[C@H]1C(=O)N[C@@H](CCC(N)=O)C(=O)O` [NAP], the “social memory, females” value in experiment [1] (2-month-old mice, 0.5 μg NAP/mouse/day intranasal in DD, 7 weeks, NAP vs vehicle p<0.05) is recorded as “significant difference”. In experiment [1] (setting [9]), the “social memory, females” value is “significant difference” and the “social memory, males” value is on record as “significant difference”. The “social memory (relative discrimination index novel vs familiar mouse)” value in experiment [1] (male mice 6-9 months, NAP in CB intranasal, FIG. 3A, NAP vs vehicle p<0.001) was “improved social memory”. The “general olfaction ability (AUC), males” value in experiment [2] (2-month-old mice (n=3-4), NAP intranasal in DD, 8 weeks, two-way ANOVA p=0.046) is on record as “main effect for treatment”. For the same compound, the “general olfaction ability (AUC), females” value in experiment [2] (5-month-old mice, NAP intranasal in CB, 9 weeks, NAP vs vehicle p<0.01) is “significant difference”. The “general olfaction ability (AUC), males” value in experiment [2] (5-month-old mice, NAP intranasal in CB, 9 weeks, NAP vs vehicle p<0.05) is reported as “significant difference”. The “general change in olfactory behavior” value in experiment [2] (FIG. 3D-G, both sexes, CB and DD) is “apparently normalized”. In addition, the “increased anxiety: relative time spent in open/closed arms” value in experiment [3] is “ameliorated”. In addition, in experiment [4] (male mice of both genotypes, NAP-treated vs vehicle-treated p<0.05), the “duration in center zone” value is given as “staying longer time at the center of the field”. Moreover, in experiment [4] (male mice), the “total path traveled (slight hyperactivity of Adnp^+/− mice)” value was “not affecting the slight hyperactivity”. Also, in experiment [5], the “Foxp2 expression in the tongue, females” value is given as “decreasing it” and the “Foxp2 expression in the tongue, males” value was “normalizing it”. For the same compound, in experiment [6], the “changes in microtubule dynamics (EB1/EB3 comets) caused by ADNP mutations” value was “ameliorated, in part”. Further, the “functional activities of daily living” value in experiment [7] is listed as “protection of functional activities of daily living”. In experiment [8], the “efficacy in PSP” value is on record as “did not show efficacy”.
